Consider 11 molecules from ChEMBL document CHEMBL1909046, “DrugMatrix in vitro pharmacology data”.

Molecules are shown by their SMILES.

What is called IC50 is the concentration at which inhibition is half-maximal. The term Ki denotes the dissociation constant of the complex between target and ligand, obtained from inhibition or displacement.

Data set [1] has as its target Glycine receptor (Rattus norvegicus, UniProt P22771+P24524+P07727+P20781). It is filed as cell membranes, Wistar, Spinal cord, Membrane. Note: in other assays of this panel Not Active means under 50% inhibition at 10 µM.
Data set [2] concerns the target T1, Glucocorticoid receptor (Homo sapiens, UniProt P04150). Note: in other assays of this panel Not Active means under 50% inhibition at 10 µM.
T1 sequence (P04150 whole entry): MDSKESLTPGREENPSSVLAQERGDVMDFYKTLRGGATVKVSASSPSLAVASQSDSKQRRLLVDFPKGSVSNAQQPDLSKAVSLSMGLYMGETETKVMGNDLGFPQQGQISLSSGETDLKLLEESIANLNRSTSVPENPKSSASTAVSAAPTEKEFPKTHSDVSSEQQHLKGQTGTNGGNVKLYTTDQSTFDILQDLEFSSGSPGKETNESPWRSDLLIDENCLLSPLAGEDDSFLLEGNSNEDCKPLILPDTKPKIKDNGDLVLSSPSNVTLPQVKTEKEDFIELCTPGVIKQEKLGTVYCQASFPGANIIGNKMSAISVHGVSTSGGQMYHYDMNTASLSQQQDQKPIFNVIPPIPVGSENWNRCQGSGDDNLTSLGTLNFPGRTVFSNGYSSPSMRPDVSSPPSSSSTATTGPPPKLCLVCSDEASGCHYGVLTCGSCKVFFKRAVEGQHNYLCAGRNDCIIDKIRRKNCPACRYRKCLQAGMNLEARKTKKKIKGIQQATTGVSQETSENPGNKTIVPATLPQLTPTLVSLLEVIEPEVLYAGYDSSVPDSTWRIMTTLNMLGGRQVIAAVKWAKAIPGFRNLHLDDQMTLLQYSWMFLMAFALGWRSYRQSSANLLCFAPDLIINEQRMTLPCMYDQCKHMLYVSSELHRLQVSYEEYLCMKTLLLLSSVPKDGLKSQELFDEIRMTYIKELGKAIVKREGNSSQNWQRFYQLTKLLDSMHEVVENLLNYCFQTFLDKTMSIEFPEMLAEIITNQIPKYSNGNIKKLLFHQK
As to conditions: hela s3.

For data set [3], the target named is T2, C-X-C chemokine receptor type 2 (Homo sapiens, UniProt P25025). Note: in other assays of this panel Not Active means under 50% inhibition at 10 µM.
T2 sequence (P25025 whole entry): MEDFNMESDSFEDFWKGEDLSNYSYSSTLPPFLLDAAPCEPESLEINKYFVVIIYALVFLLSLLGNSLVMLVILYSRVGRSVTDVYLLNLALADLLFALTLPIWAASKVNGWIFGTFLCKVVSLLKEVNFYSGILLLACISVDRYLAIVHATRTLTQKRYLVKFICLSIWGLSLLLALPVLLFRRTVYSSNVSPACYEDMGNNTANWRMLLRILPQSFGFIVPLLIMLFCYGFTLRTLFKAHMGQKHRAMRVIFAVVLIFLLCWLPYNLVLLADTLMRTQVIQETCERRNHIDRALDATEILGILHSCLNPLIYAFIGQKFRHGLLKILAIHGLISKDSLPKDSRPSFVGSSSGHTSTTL
It counts as cell membranes, Membrane. As to conditions: cho-k1.

Data set [4] deals with T3, Leukotriene C4 synthase (Cavia porcellus, UniProt A6XA80).
T3 sequence (A6XA80 whole entry): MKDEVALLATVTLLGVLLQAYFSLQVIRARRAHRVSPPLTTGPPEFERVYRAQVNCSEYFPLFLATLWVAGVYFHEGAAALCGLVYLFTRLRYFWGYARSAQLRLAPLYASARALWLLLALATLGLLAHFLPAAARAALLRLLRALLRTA
It is filed as tissue-based, Lung.

The target in data set [5] is T4, Alpha-1D adrenergic receptor (Homo sapiens, UniProt P25100). Note: in other assays of this panel Not Active means under 50% inhibition at 10 µM.
T4 sequence (P25100 whole entry): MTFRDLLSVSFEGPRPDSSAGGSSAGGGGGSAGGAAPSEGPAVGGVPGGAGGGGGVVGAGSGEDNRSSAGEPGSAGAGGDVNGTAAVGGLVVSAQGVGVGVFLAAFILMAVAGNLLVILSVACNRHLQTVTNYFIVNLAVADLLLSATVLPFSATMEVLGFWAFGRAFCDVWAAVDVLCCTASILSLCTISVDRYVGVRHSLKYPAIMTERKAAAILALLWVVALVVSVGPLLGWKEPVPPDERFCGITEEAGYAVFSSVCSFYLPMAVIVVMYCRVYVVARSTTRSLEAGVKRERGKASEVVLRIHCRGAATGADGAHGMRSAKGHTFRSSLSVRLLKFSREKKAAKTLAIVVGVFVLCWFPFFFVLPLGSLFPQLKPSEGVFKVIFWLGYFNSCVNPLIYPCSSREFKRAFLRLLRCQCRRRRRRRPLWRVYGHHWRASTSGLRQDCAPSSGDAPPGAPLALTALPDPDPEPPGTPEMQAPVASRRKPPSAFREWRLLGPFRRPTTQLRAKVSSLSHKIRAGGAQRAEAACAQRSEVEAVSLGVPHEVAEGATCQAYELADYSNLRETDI
It is filed as cell membranes, HEK293, Membrane.

Data set [6] has as its target Cytochrome P450 2E1 (Homo sapiens, UniProt P05181). Particulars: bti-tn-5b1-4. Note: in other assays of this panel Not Active means under 50% inhibition at 10 µM.
Data set [7] deals with T5, Cathepsin G (Homo sapiens, UniProt P08311).
T5 sequence (P08311 whole entry): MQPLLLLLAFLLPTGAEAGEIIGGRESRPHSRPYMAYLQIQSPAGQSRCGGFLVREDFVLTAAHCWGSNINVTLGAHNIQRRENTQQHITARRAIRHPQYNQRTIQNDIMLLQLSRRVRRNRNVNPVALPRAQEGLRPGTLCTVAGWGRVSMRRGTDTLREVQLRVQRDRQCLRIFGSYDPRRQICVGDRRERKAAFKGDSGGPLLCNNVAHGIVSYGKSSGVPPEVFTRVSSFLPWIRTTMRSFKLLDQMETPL
It is filed as tissue-based. Particulars: neutrophil.

The nature of data set [8]: DRUGMATRIX: Tumor Necrosis Factor (TNF), Non-Selective radioligand binding (ligand: [125I] TNF-alpha). It is filed as cell membranes, Membrane. As to conditions: u-937; Not Active = under 50% inhibition at 10 µM.
Data set [9] deals with T6, Neutrophil elastase (Homo sapiens, UniProt P08246).
T6 sequence (P08246 whole entry): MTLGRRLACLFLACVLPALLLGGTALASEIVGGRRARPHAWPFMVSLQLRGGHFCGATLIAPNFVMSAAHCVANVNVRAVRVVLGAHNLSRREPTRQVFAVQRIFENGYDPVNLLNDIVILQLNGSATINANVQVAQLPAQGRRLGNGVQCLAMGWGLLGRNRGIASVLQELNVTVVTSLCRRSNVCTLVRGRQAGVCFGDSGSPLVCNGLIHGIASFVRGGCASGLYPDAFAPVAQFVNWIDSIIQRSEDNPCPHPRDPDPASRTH
It is filed as tissue-based.

Cytochrome P450 2E1, sequence (P05181 whole entry): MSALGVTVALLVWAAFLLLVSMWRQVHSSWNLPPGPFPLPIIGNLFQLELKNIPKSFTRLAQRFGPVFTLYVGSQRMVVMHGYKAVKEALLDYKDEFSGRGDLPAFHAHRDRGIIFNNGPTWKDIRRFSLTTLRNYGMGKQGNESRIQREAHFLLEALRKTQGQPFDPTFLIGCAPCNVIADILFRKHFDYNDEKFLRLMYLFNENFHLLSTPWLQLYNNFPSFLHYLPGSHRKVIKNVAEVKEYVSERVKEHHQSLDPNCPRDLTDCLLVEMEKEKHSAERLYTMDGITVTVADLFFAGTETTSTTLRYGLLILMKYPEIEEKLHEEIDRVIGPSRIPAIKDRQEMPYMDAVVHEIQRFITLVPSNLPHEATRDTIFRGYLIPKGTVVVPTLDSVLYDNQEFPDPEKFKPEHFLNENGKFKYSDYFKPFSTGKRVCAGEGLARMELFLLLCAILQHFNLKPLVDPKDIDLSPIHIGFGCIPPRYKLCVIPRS

Take `CO/N=C(\C(=O)N[C@@H]1C(=O)N2C(C(=O)O)=C(COC(C)=O)CS[C@H]12)c1csc(N)n1` [CEFOTAXIME]: the IC50 result in data set [1], in [2], in [3], in data set [4], in data set [5] (hek293) and in data set [6] was “Not Active” each time. In addition, the IC50 entry in data set [7], in data set [8] and in data set [9] was “Not Active” in each case. Further, the Ki entry in data set [6] and in [8] was “Not Active” each time.
Take `CNC1=Nc2ccc(Cl)cc2C(c2ccccc2)=[N+]([O-])C1` [CHLORDIAZEPOXIDE]: the IC50 result in data set [1], in [2], in [3], in data set [4], in [5] (hek293) and in data set [6] was “Not Active” throughout. Moreover, the IC50 result in data set [7], in data set [8] and in data set [9] was “Not Active” throughout. Also, the Ki result in [6] and in data set [8] was “Not Active” throughout.
For `Cc1cc(O)cc(C)c1Cl` [CHLOROXYLENOL], the IC50 result in data set [1], in data set [2], in data set [3], in data set [4], in data set [5] (hek293) and in data set [6] was “Not Active” each time. For the same molecule, the IC50 result in data set [7], in data set [8] and in data set [9] was “Not Active” in each case. Further, the Ki entry in data set [6] and in data set [8] was “Not Active” throughout.
Take `CCCNC(=O)NS(=O)(=O)c1ccc(Cl)cc1` [CHLORPROPAMIDE]: the IC50 entry in [1], in data set [2], in [3], in data set [4], in data set [5] (hek293) and in [6] was “Not Active” in each case. Besides, the IC50 entry in data set [7], in [8] and in data set [9] was “Not Active” throughout. Moreover, the Ki result in data set [6] and in data set [8] was “Not Active” throughout.
`NS(=O)(=O)c1cc(C2(O)NC(=O)c3ccccc32)ccc1Cl` (configuration not stated) [CHLORTHALIDONE]: the IC50 entry in data set [1], in data set [2], in [3], in [4], in data set [5] (hek293) and in data set [6] was “Not Active” in each case. Moreover, the IC50 entry in data set [7], in data set [8] and in [9] was “Not Active” throughout. Besides, the Ki entry in data set [6] and in data set [8] was “Not Active” each time.
Take `O=C(O)CC(O)(CC(=O)O)C(=O)O` [CITRIC ACID]: the IC50 result in data set [1], in [2], in data set [3], in data set [4], in [5] (hek293) and in [6] was “Not Active” each time. In addition, the IC50 entry in data set [7], in [8] and in data set [9] was “Not Active” throughout. Besides, the Ki result in data set [6] and in [8] was “Not Active” throughout.
As to `CN1CCN(C(c2ccccc2)c2ccccc2)CC1` [CYCLIZINE], the IC50 result in data set [1] is “Not Active”; in data set [2], “Not Active”; in data set [3], “Not Active”; in data set [4], “Not Active”; in data set [5] (read-out: IC50), 1210 nM; in data set [6] it was “Not Active”. For the same molecule, the IC50 entry in [7], in data set [8] and in [9] was “Not Active” in each case. The Ki in [5] (read-out: Ki) was 597 nM; in data set [6] it was “Not Active”; in data set [8], “Not Active”.
For the molecule `CN1C[C@@H]2C[C@H]1CN2c1cc2c(cc1F)c(=O)c(C(=O)O)cn2C1CC1` [DANOFLOXACIN], the IC50 result in data set [1], in [2], in data set [3], in data set [4], in [5] (hek293) and in [6] was “Not Active” each time. In addition, the IC50 entry in data set [7], in data set [8] and in data set [9] was “Not Active” each time. Besides, the Ki entry in [6] and in data set [8] was “Not Active” in each case.
Regarding `COc1cccc2c1C(=O)c1c(O)c3c(c(O)c1C2=O)C[C@@](O)(C(C)=O)C[C@@H]3O[C@H]1C[C@H](N)[C@H](O)[C@H](C)O1` [DAUNORUBICIN], the IC50 result in data set [1], in [2], in data set [3], in [4], in data set [5] (hek293) and in data set [6] was “Not Active” each time. Besides, the IC50 entry in data set [7], in [8] and in data set [9] was “Not Active” each time. Further, the Ki entry in data set [6] and in data set [8] was “Not Active” throughout.
For `O=C(O)c1cc(-c2ccc(F)cc2F)ccc1O` [DIFLUNISAL], the IC50 result in data set [1], in data set [2], in data set [3], in data set [4], in [5] (hek293) and in data set [6] was “Not Active” each time. Also, the IC50 entry in data set [7], in data set [8] and in data set [9] was “Not Active” throughout. In addition, the Ki entry in data set [6] and in data set [8] was “Not Active” throughout.
In the case of `C[S+](C)[O-]` [DIMETHYL SULFOXIDE], the IC50 result in data set [1], in data set [2], in data set [3], in [4], in data set [5] (hek293) and in [6] was “Not Active” each time. Further, the IC50 result in data set [7], in data set [8] and in data set [9] was “Not Active” each time. For the same molecule, the Ki entry in data set [6] and in [8] was “Not Active” throughout.
